Experimental data reported in patent US6376535B2, “Oxygen-containing heterocyclic compounds” (Kyowa Hakko Kogyo Co., Ltd., priority 1998, dated 2002).

Tests used:
[1] = biological target: T1, Recombinant Human PDE IV Enzyme (HSPDE4A) (Homo sapiens, UniProt P27815); assay: Inhibition Test on Recombinant Human PDE IV Enzyme; type: biochemical; details: substrate [3H]cAMP 1 μmol/L
T1 construct: made in house; host or cells: E. coli
Description: Inhibition Test on Recombinant Human PDE IV Enzyme
Human phosphodiesterase cDNA (HSPDE4A) was isolated from testicles. Its predicted amino acid sequence is identical with the sequence (HSPDE4A5) reported by Bolger, G. et al. (Mol. Cell. Biol., 6558 (1993)) except that 223 amino acids have been deleted from the N-terminal thereof. This recombinant protein was expressed by an E. coli expression plasmid and then purified. The PDE activity was measured in the following 2-step process according to the method of Kincaid, R. and Manganiello, V. [Method. Enzymol., 159, 457 (1988)]. The substrate used was [^3H]cAMP (final concentration: 1 μmol/L), and the reaction was performed in a standard mixture containing N,N-bis(2-hydroxyethyl)-2-aminoethanesulfonic acid (50 mmol/L, pH 7.2), MgCl2 (1 mmol/L) and soybean trypsin inhibitor (0.1 mg/ml). The reaction was initiated by adding the enzyme thereto, and the mixture was incubated at 30° C. for 10 to 30 minutes. The reaction was quenched by hydrochloric acid, and the formed 5′-AMP was completely decomposed with […]. This sample was subjected to chromatography on DEAE-Sephadex A-25, and the eluted [^3H]adenosine was counted […] with a scintillation counter. The test compound was added after dissolved (concentration: 1.7%) in DMSO.

T1 sequence (P27815 224-886 limits assumed): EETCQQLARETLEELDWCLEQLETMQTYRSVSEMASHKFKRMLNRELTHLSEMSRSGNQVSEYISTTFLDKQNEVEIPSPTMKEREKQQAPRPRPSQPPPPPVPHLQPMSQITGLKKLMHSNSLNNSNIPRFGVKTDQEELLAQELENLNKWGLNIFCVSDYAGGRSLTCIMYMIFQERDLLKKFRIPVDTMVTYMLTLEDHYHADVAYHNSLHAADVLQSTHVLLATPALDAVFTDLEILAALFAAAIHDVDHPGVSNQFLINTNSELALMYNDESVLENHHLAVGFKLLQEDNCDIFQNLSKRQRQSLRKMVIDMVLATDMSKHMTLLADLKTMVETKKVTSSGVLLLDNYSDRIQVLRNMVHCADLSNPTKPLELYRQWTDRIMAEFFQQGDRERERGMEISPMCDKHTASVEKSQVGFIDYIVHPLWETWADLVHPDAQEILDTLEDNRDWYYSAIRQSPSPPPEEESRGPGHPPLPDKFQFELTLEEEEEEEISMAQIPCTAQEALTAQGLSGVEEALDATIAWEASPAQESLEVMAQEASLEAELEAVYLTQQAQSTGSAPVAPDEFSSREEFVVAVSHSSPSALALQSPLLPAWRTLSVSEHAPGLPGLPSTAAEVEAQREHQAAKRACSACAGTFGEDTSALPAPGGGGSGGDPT

| Compound | melting point [°C] | enzyme inhibitory activity [1] |
| --- | --- | --- |
| COc1ccc(C2(C#N)CCC(C(=O)O)CC2)c2c1OCCO2 (stereo not drawn) [Compound 5, cis-4-Cyano-4-(8-methoxy-1,4-benzodioxan-5-yl)cyclohexanecarboxylic acid] | – | over 87% |
| COc1ccc(-c2cccc3c2COC3=O)c2c1OCCO2 [Compound 22, 4-(8-Methoxy-1,4-benzodioxan-5-yl)-1(3H)-isobenzofuranone] | 158 to 160 | – |
| COc1ccc(-c2ccc3c(c2)C(=O)NC3=O)c2c1OCCO2 [Compound 23, 4-(8-Methoxy-1,4-benzodioxan-5-yl)phthalimide] | 285 to 287 | – |

The next lines start with the values.

| melting point [°C] | enzyme inhibitory activity [1] | Compound |
| --- | --- | --- |
| 110 to 112 | – | CCOC(=O)C=C1CCC(C#N)(c2ccc(OC)c3c2OCCO3)CC1 (stereo not drawn) [Compound 10, Ethyl 4-cyano-4-(8-methoxy-1,4-benzodioxan-5-yl)cyclohexanylideneacetate] |
| 203 to 204 | – | COc1ccc(C2(C#N)CCC(=CC(=O)O)CC2)c2c1OCCO2 (stereo not drawn) [Compound 11, 4-Cyano-4-(8-methoxy-1,4-benzodioxan-5-yl)cyclohexanylideneacetic acid] |
| 112 to 113 | – | COC=C1CCC(C#N)(c2ccc(OC)c3c2OCCO3)CC1 (stereo not drawn) [Compound 6, 1-(8-Methoxy-1,4-benzodioxan-5-yl)-4-methoxymethylenecyclohexane carbonitrile] |
